How the values were obtained:
[1] = Bortezomib as such; cited from earlier work
[2] = stress testing and accelerated stability studies; cited from earlier work
[3] = tested on: Female New-Zealand White Rabbits; details: rabbit, in vivo
Description: Also Local tolerability/tissue reaction of Bortezomib 3.5 mg/0.2 mL compared with Velcade (Reference product) in Female New-Zealand White Rabbits.
The study was conducted to assess the local tolerance of Bortezomib in comparison with Velcade (Reference product) in New Zealand White Rabbits by single subcutaneous or intravenous route.

| Molecule | water solubility [1] | stability in aqueous solution for injection [2] | External observation of the site of injection: signs of local intolerance [3] | Microscopic signs of local intolerance ([3]; iv) | animals with signs of local intolerance observed microscopically ([3]; sc) |
| --- | --- | --- | --- | --- | --- |
| CC(C)C[C@H](NC(=O)[C@H](Cc1ccccc1)NC(=O)c1cnccn1)B(O)O [Bortezomib, [(1R)-3-methyl-1-[[(2s)-3-phenyl-2-(pyrazine-2-carbonylamino)propanoyl]amino]butyl]boronic acid] | poor water solubility | unstable |  |  |  |
| Velcade |  |  | did not reveal any signs of local intolerance | no signs of local intolerance | 50 % of animals |

Source: patent publication US10314880B2, “Composition comprising bortezomib” (FTF Pharma Private Limited, priority 2015, dated 2019)
